According to ChEMBL document CHEMBL5143724, “Small Molecules Promote Selective Denaturation and Degradation of Tubulin Heterodimers through a Low-Barrier Hydrogen Bond” (J Med Chem, 2022):
Active and inactive are the calls of the source. The calls are words filed in the database; no cut-off is given here.

How the values were obtained:
[1] = target: Tubulin beta (Homo sapiens) (UniProt P68371+Q9H4B7+Q13509+P04350+Q3ZCM7+P07437+Q13885+Q9BVA1+Q9BUF5+A6NNZ2); assay: Induction of Beta tubulin degradation in human HeLa cells at 0.001 to 100 uM incubated for 16 hrs by immunoblotting analysis; format: cell-based; details: dose 0.001-100 µM
HeLa = assay: Antiproliferative activity against human HeLa cells assessed as cell viability at 0.001 to 100 uM incubated for 48 hrs by MTT assay; format: functional, cell-based; details: dose 0.001-100 µM

Row | Activity [1] | SMILES | Activity (HeLa)
1 | Active | CCCCNc1cc2c(cn1)[nH]c1ccccc12 | Active
2 | Active | c1ccc2c(c1)[nH]c1cnc(NCC3CCCCC3)cc12 | Active
3 | Active | c1ccc(Oc2cccc(CCc3cc4c(cn3)[nH]c3ccccc34)c2)cc1 | Active
4 | Active | c1ccc(Oc2cccc(CNc3ccccn3)c2)cc1 | Active
